# In PubChem BioAssay AID2060888 (Molecular Pharmacology Branch, DTP, NCI, 2025):
# Test system: 695427-040-R-J1-PDC complex spheroid viability
# Assay: Anticancer human tumor 695427-040-R-J1-PDC patient-derived colon adenocarcinoma cell line growth inhibition [RAS]
# Conditions: for IC50: curve of first compound; for viability, T/C: stronger effect = lower value
# From the text: RAS pathway inhibitors in Combinations in Complex Spheroids
# A high-throughput screen of multi-cell type tumor spheroids was designed to identify active combinations of RAS pathway inhibitors and targeted small molecules. Complex spheroids include a stromal component modeled by human endothelial cells (HUVEC) and fibroblasts modeled by human mesenchymal stem cells (MSCs). The concentration ranges selected for each drug and investigational agent were based upon clinically achievable concentrations if the clinical Cmax of the agent was known.
# Compounds. The drugs and investigational agents: abemaciclib (NSC768073), cobimetinib (NSC768068), divarasib (GDC6063, NSC841802), docetaxel (NSC628503), GDC-1971 (RLY-1971, NSC841576), gemcitabine (NSC613327), inavolisib (NSC800729), ipatasertib (NSC767898), KB-0742 (NSC834161), MRTX-1133 (NSC836407), osimertinib (NSC779217), RMC-4630 (NSC839698), RMC-6236 (NSC851965), RMC-6291 (NSC852671), Ro-3306 (NSC812927), sapanisertib (NSC764658), SN-38 (NSC673596), staurosporine (NSC755774), SY5609 (NSC837396), and tovorafenib (DAY101, NSC766906), were obtained from the National Cancer Institute (NCI) Developmental Therapeutics Program Chemical Repository. The FDA-approved anticancer drug set is available from the NCI Developmental Therapeutics Program. […] The stock solutions were prepared in dimethyl sulfoxide (DMSO, Sigma-Aldrich, St. Louis, MO, cat. D2650) at 800-fold the tested concentration and stored at -70 degrees C prior to their use. All drugs and investigational agents were tested over a range starting from a high concentration at or near the clinical Cmax and decreasing in half-log increments. If the clinical Cmax for an agent had not been determined, the highest concentration tested was 10 microM.
# Cell Culture. All cells were maintained in an incubator at 37 degrees C and 5% CO2 with 95% humidity. The PDC lines were cultured according to standard operating procedures established by the NCI PDMR. All PDCs were thawed and cultured in Matrigel-coated flasks prepared with a working solution of 1X Ham's F-12 nutrient mix, without supplementation (Invitrogen, Waltham, MA, cat. 11765054), 100 U/mL penicillin-streptomycin (Invitrogen, cat. 15140122), and 2.5% Matrigel (Corning Inc., Corning, NY, cat. 354248) for the first three passages. The 362531-283-R-J2-PDC and 782815-120-R-J1-PDC lines were cultured in 6C/Colon 1B media, which includes advanced DMEM/F-12 (Thermo Fisher Scientific, cat. 12634028), 10 mM HEPES (Thermo Fisher Scientific, cat. 15630080), 1X GlutaMAX supplement (Thermo Fisher Scientific, cat. 35050061), 0.1 mg/mL primocin (InvivoGen, San Diego, CA, cat. ant-pm-2), 10% defined fetal bovine serum, heat inactivated (HyClone Laboratories Inc., Logan, UT, cat. SH30070.03HI), 50% L-WRN conditioned media (ATCC, cat. CRL-3276), 1.25 mM N-Acetyl-L-cysteine (Sigma-Aldrich, cat. A9165), 10 mM nicotinamide (Sigma-Aldrich, cat. N0636), 1X B-27 supplement (Thermo Fisher Scientific, cat. 17504044), 1X N-2 supplement (Thermo Fisher Scientific, cat. 17502048), 50 ng/mL human EGF (Thermo Fisher Scientific, cat. PHG0311), and 10 microM Y-27632 dihydrochloride (Tocris Bioscience, cat. 1254). The K12877-001-R-J1-PDC line was cultured in 6I media, which includes all 6C/Colon 1B media plus 10 ng/mL human FGF-10 (PeproTech, cat. 100-26), 1 ng/mL human FGF-2 (PeproTech, cat. 100-18B), 1 µM prostaglandin E2 (Tocris Bioscience, cat. 2296), […] hydrocortisone (Sigma-Aldrich, cat. H4001), and […] bovine insulin (Sigma-Aldrich, cat. I6634). The K86415-001-R-J1-PDC line was cultured in 6D media, which includes all 6C/Colon 1B media components minus the L-WRN conditioned media. The 485176-168-R4-J1-PDC was cultured in PANC media, which includes all 6C/Colon 1B media plus 100 ng/mL human FGF-10 (PeproTech, cat. 100-26), 500 nM SB-431542 (Selleckchem, cat. S1067), and 10 nM gastrin (Tocris Bioscience, cat. 3006). […]
# [1] = second compound 0.000949 µM, first compound 0.0316 µM
# [2] = second compound 0.000949 µM, first compound 0.1 µM
# [3] = second compound 0.000949 µM, first compound 0.316 µM
# [4] = second compound 0.000949 µM, first compound 1 µM
# [5] = second compound 0.003 µM, first compound 0.0316 µM
# [6] = second compound 0.003 µM, first compound 0.1 µM
# [7] = second compound 0.003 µM, first compound 0.316 µM
# [8] = second compound 0.003 µM, first compound 1 µM
# [9] = second compound 0.00949 µM, first compound 0.0316 µM
# [10] = second compound 0.00949 µM, first compound 0.1 µM
# [11] = second compound 0.00949 µM, first compound 0.316 µM
# [12] = second compound 0.00949 µM, first compound 1 µM
# [13] = second compound 0.03 µM, first compound 0.0316 µM
# [14] = second compound 0.03 µM, first compound 0.1 µM
# [15] = second compound 0.03 µM, first compound 0.316 µM
# [16] = second compound 0.03 µM, first compound 1 µM
# [17] = second compound 0.0949 µM, first compound 0.0316 µM
# [18] = second compound 0.0949 µM, first compound 0.1 µM
# [19] = second compound 0.0949 µM, first compound 0.316 µM
# [20] = second compound 0.0949 µM, first compound 1 µM
# [21] = second compound 0.3 µM, first compound 0.0316 µM
# [22] = second compound 0.3 µM, first compound 0.1 µM
# [23] = second compound 0.3 µM, first compound 0.316 µM
# [24] = second compound 0.3 µM, first compound 1 µM
# 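Also: viability read after seven days of drug exposure.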
# 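For viability, T/C in this document: 100% = DMSO vehicle control viability.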
smiles,measurement,setting,value
CCN1CCN(Cc2ccc(Nc3ncc(F)c(-c4cc(F)c5nc(C)n(C(C)C)c5c4)n3)nc2)CC1 + CCn1c(-c2cc(N3CCN(C)CC3)cnc2C(C)OC)c2c3cc(ccc31)-c1csc(n1)CC(NC(=O)C1CC1C)C(=O)N1CCCC(N1)C(=O)OCC(C)(C)C2,IC50,second compound 0.000949 µM,> 1000 nM
same,IC50,second compound 0.003 µM,> 1000 nM
same,IC50,second compound 0.00949 µM,> 1000 nM
same,IC50,second compound 0.03 µM,75.3 nM
same,IC50,second compound 0.0949 µM,< 3.16 nM
same,IC50,second compound 0.3 µM,< 3.16 nM
same,"viability, T/C","second compound 0.000949 µM, first compound 0.00316 µM",94.2%
same,"viability, T/C","second compound 0.000949 µM, first compound 0.01 µM",87.4%
same,"viability, T/C",[1],95.4%
same,"viability, T/C",[2],94.4%
same,"viability, T/C",[3],92.8%
same,"viability, T/C",[4],59.9%
same,"viability, T/C","second compound 0.003 µM, first compound 0.00316 µM",97.9%
same,"viability, T/C","second compound 0.003 µM, first compound 0.01 µM",105%
same,"viability, T/C",[5],95.7%
same,"viability, T/C",[6],85.2%
same,"viability, T/C",[7],83.3%
same,"viability, T/C",[8],59.2%
same,"viability, T/C","second compound 0.00949 µM, first compound 0.00316 µM",105%
same,"viability, T/C","second compound 0.00949 µM, first compound 0.01 µM",74.5%
same,"viability, T/C",[9],84.2%
same,"viability, T/C",[10],67.2%
same,"viability, T/C",[11],67.8%
same,"viability, T/C",[12],49.6%
same,"viability, T/C","second compound 0.03 µM, first compound 0.00316 µM",65%
same,"viability, T/C","second compound 0.03 µM, first compound 0.01 µM",62.9%
same,"viability, T/C",[13],45.4%
same,"viability, T/C",[14],53.3%
same,"viability, T/C",[15],47.6%
same,"viability, T/C",[16],39.7%
same,"viability, T/C","second compound 0.0949 µM, first compound 0.00316 µM",51.9%
same,"viability, T/C","second compound 0.0949 µM, first compound 0.01 µM",41.2%
same,"viability, T/C",[17],50.4%
same,"viability, T/C",[18],37%
same,"viability, T/C",[19],44.4%
same,"viability, T/C",[20],36.5%
same,"viability, T/C","second compound 0.3 µM, first compound 0.00316 µM",37.4%
same,"viability, T/C","second compound 0.3 µM, first compound 0.01 µM",41.4%
same,"viability, T/C",[21],38.6%
same,"viability, T/C",[22],38.8%
same,"viability, T/C",[23],42.6%
same,"viability, T/C",[24],41.9%
CC(C)NCC(C(=O)N1CCN(c2ncnc3c2C(C)CC3O)CC1)c1ccc(Cl)cc1 (centres undefined) + CCn1c(-c2cc(N3CCN(C)CC3)cnc2C(C)OC)c2c3cc(ccc31)-c1csc(n1)CC(NC(=O)C1CC1C)C(=O)N1CCCC(N1)C(=O)OCC(C)(C)C2,IC50,second compound 0.000949 µM,> 10000 nM
same,IC50,second compound 0.003 µM,> 10000 nM
same,IC50,second compound 0.00949 µM,> 10000 nM
same,IC50,second compound 0.03 µM,4050 nM
same,IC50,second compound 0.0949 µM,< 31.6 nM
same,IC50,second compound 0.3 µM,< 31.6 nM
same,"viability, T/C",[1],84.9%
same,"viability, T/C",[2],98.1%
same,"viability, T/C",[3],78.2%
same,"viability, T/C",[4],89.4%
same,"viability, T/C","second compound 0.000949 µM, first compound 3.16 µM",60.6%
same,"viability, T/C","second compound 0.000949 µM, first compound 10 µM",54.8%
same,"viability, T/C",[5],107%
same,"viability, T/C",[6],85.5%
same,"viability, T/C",[7],96.5%
same,"viability, T/C",[8],73%
same,"viability, T/C","second compound 0.003 µM, first compound 3.16 µM",85.6%
same,"viability, T/C","second compound 0.003 µM, first compound 10 µM",59.2%
same,"viability, T/C",[9],74.4%
same,"viability, T/C",[10],81.3%
same,"viability, T/C",[11],65%
same,"viability, T/C",[12],59.1%
same,"viability, T/C","second compound 0.00949 µM, first compound 3.16 µM",85.3%
same,"viability, T/C","second compound 0.00949 µM, first compound 10 µM",54.1%
same,"viability, T/C",[13],51.4%
same,"viability, T/C",[14],54.6%
same,"viability, T/C",[15],51.4%
same,"viability, T/C",[16],52.5%
same,"viability, T/C","second compound 0.03 µM, first compound 3.16 µM",60.1%
same,"viability, T/C","second compound 0.03 µM, first compound 10 µM",35.1%
same,"viability, T/C",[17],36.4%
same,"viability, T/C",[18],45.1%
same,"viability, T/C",[19],39.2%
same,"viability, T/C",[20],36%
same,"viability, T/C","second compound 0.0949 µM, first compound 3.16 µM",41.9%
same,"viability, T/C","second compound 0.0949 µM, first compound 10 µM",24.6%
same,"viability, T/C",[21],36.9%
same,"viability, T/C",[22],28.7%
same,"viability, T/C",[23],35.5%
same,"viability, T/C",[24],30.8%
same,"viability, T/C","second compound 0.3 µM, first compound 3.16 µM",27.9%
same,"viability, T/C","second compound 0.3 µM, first compound 10 µM",15.5%
